Results on two compounds are retold here after US20260091049A1, “HALIDE-FREE AMMONIUM SILANES” (TOPIKOS SCIENTIFIC, INC., priority 2022, published 2026).

Where “and” joins values, the source holds several entries; their conditions need not be identical. Equal entries are not always repeated. Where only a bound is given, the exact number is not on record here.

A short description of data set [1]: Clarity and dissolution of the solid product in water. The format is physicochemical. How it is done: A 500 mL round bottom reaction vessel was outfitted with an oil bath, stir bar, distillation head and condenser, receiving flask, oil bubbler, gas inlet that allows argon to pass through vessel and distillation setup, an immersion thermoprobe for the oil bath, and a thermoprobe for the head. The reactor is charged with 47.6 mL of a 42% methanolic solution of dimethyloctadecyl[3-(trimethoxysilyl)propyl]ammonium chloride (Aldrich), 200 mL DMF, 27.7 g (3 equiv.) of N-Tris(hydroxymethyl)methyl-2-aminoethanesulfonic acid (TES) and 8.7 mL of 25% MeONa in MeOH. The mixture is heated to 125 degrees C. (oil temp) and the methanol is collected by distillation. As the reaction is heated a homogenous solution is formed. As the methanol is distilled off a white precipitate begins to form. The reaction is heated until the head temp drops and no more MeOH is evolved (about 1.5 hours). The reaction is then cooled to room temperature and the precipitate (NaCl) is removed by filtration through a glass fiber filter and the DMF was concentrated to about 100 mL total volume at reduced pressure. The solution is cooled to rt. A 1 L flask under argon and a stir bar is charged with anhydrous acetonitrile (1000 mL) and cooled to ˜10 C. The DMF solution is added slowly to rapidly stirring acetonitrile to form a white suspension. Stirring is continued for 30 minutes. […]

Data set [2] is described as follows: Polymerization stability in aqueous media by LCMS/MS quantification of hydrolyzed trisiloxy species. Format: physicochemical.

Consider `CCCCCCCCCCCCCCCCCC[N+](C)(C)CCC[Si](OCC(CO)(CO)NCCS(=O)(=O)[O-])(OCC(CO)(CO)NCCS(=O)(=O)O)OCC(CO)(CO)NCCS(=O)(=O)O` [Example 1, 2-[[1-[[3-[dimethyl(octadecyl)ammonio]propyl-[3-hydroxy-2-(hydroxymethyl)-2-(2-sulfoethylamino)propoxy]-[3-hydroxy-2-(hydroxymethyl)-2-(2-sulfoethylamino)propoxy]silyl]oxymethyl]-2-hydroxy-1-(hydroxymethyl)ethyl]amino]-ethanesulfonate], for which, in data set [1] (1% solution in water), the “time a solution in water remains clear” value is greater than 5 months. Moreover, the “dissolution of the powder in water” value in data set [1] (fine powder, water, gentle heating) is “dissolves quickly in water with gentle heating”.

As to `CCCCCCCCCCCCCCCCCC[N+](C)(C)CCC[Si](O)(O)O` [Compound 1 hydrolysis product], in data set [2] (average of three measurements after storage under ambient conditions for multiple years), the “2022 Concentration of Compound 1 hydrolysis product, average” value was “Average: 58.3 μg/mL”. Also, the “2019 Concentration of Compound 1 hydrolysis product, average” value in data set [2] (average of three measurements, reference value immediately after preparation) is listed as “Average: 62.6 μg/mL”. Moreover, in data set [2] (over prolonged periods of time), the “stability to polymerization in aqueous media” value is listed as “excellent stability to polymerization”. Further, in data set [2] (single measurements after storage under ambient conditions for multiple years, expected 60 μg/mL, expressed as Compound 1 equivalent), the “2022 Concentration of Compound 1 hydrolysis product” value is 59.2 µg/mL and 54.8 µg/mL and 60.9 µg/mL. The “2019 Concentration of Compound 1 hydrolysis product” value in data set [2] (single measurements immediately after preparation, Compound 1 diluted in water to expected 60 μg/mL, expressed as Compound 1 equivalent) is 69.1 µg/mL and 54.3 µg/mL and 64.4 µg/mL.
